From patent publication US8785598B2, “Coenzyme Q10 nanoparticles, preparation method thereof and composition containing said nanoparticles” (Korea Research Institute of Bioscience and Biotechnology, priority 2009, dated 2014)

Assay: Confirmation of solubilization of coenzyme Q10 nanoparticle (visual, FIG. 9)
Type: physicochemical
Details: dispersed in water
Text: FIG. 9 illustrates images of (1) coenzyme Q10 powder, (2) an aqueous solution separated into a supernatant layer when coenzyme Q10 is dispersed in water and (3) an aqueous solution of a coenzyme Q10 nanoparticle of Example 7 of the present invention.
As a result, a semi-transparent yellow aqueous solution was formed.

COC1=C(OC)C(=O)C(C/C=C(\C)CC/C=C(\C)CC/C=C(\C)CC/C=C(\C)CC/C=C(\C)CC/C=C(\C)CC/C=C(\C)CC/C=C(\C)CC/C=C(\C)CCC=C(C)C)=C(C)C1=O [coenzyme Q10]
solubility in water / appearance of aqueous solution: not soluble in water
